Columns and labels:
[1] = tested on: Monoclonal Receptor 22F5; assay: Kinetics of hydrolysis by receptor 22F5; format: biochemical, mouse
Description: (§1) Reaction kinetics were studied using three reactant ligands as substrates for monoclonal receptors 37G2 and 22F5. Data from initial rates were consistent with Michaelis-Menten reaction mechanism for a usual enzyme-substrate system. Initial rates were followed using at 271 nm using a U.V.-visible spectorphotometer for Compound 17, and a fluorescence spectrometer for Compounds 5 and 20, using an excitation wavelength of 355 nm and an emission wavelength of 455 nm for both compounds.
Lineweaver-Burke plots for the catalyzed hydrolysis of Compounds 17, 5 and 20 obtained in the presence and absence of Compound 12i as inhibitor were prepared as discussed for FIG. 4. In particular, Compound 17 was present at concentrations of 1-16 uM with inhibitor concentrations of 100 and 300 nanomolar (nM). Compound 5 was present at concentrations of 1-10 uM with inhibitor concentrations of 100 and 200 nM. Compound 20 was present at concentrations of 2-20 uM with inhibitor concentrations of 25 and 100 nM.
*Fluorescence assays using Compounds 20 and 5 were carried out in a
PerkinElmer fluorescence spectrophotometer (moded LS5; Oakbrook, IL) usin
200 nanomolar receptor (based on a molecular weight of 150,000 daltons) i
50 mM phosphate buffer at a pH value of 8.0. The reactant ligand was
dissolved in dioxane and admixed in the amounts discussed above. Two
milliliters of reaction solution were utilized as was a dioxane
concentration of 2 percent by volume. […]

[2] = tested on: 1209; assay: Hydrolysis of reactant ligands by receptor 12C9 (column head prints 1209); format: biochemical, mouse; set-up: key to hydrolysis by 1209, symbol: --: No hydrolysis observed; conditions: pH 8.0; for hydrolysis by 1209: receptor/ligand uM, time h: 17 1/10, 2, 18 2/10, 24, 20 2/10, 0.33, 5 1/5, 0.33, 22 5/10, 3.5, preliminary
Protocol: (§2) ^1 Preliminary initial hydrolyses shown as the percentage of admixed
(§3) reactant ligand consumed for catalyzed and spontaneous hydrolyses. "--" =
(§4) No hydrolysis observed. "NT" = Not tried. All reactions were carried out
(§5) at pH 8.0 in a 50 mM phosphate buffer unless otherwise noted. Hydrolytic
(§6) percentages were determined by HPLC using a Hitachi model 655A12 liquid
(§7) chromatograph with a C18 Vydac 201TP54 column, except as noted below.
(§8) Mixtures of acetonitrile a nd water containing 0.1 percent trichloroaceti
(§9) acid [28:72-50:50 (v/v)] were used as elutant. Hydrolyses of Compounds 5
(§10) and 20 were assayed using fluorescence data.
(§11) ^2 Concentrations of receptor molecules (Rec.) and reactant ligands
(§12) (Lig.) in micromolar units, presuming a molecular weight of 150,000
(§13) daltons for each receptor molecule.
(§14) ^3 Reactant ligand (Lig.) used as substrate.
(§15) ^4 Time in hours that the reaction was permitted to take place.
(§16) ^5 Spontaneous hydrolytic percentages for the time period indicated.
(§17) ^6 Reaction carried out at pH 7.2 in a 50 mM phosphate buffer.

[3] = tested on: 44A2; assay: Hydrolysis of reactant ligands by receptor 44A2; format: biochemical, mouse; set-up: key to hydrolysis by 44A2, symbol: --: No hydrolysis observed; conditions: pH 8.0; for hydrolysis by 44A2: receptor/ligand uM, time h: 17 1/10, 2, 18 2/10, 24, 20 2/10, 0.33, 5 1/5, 0.33, 22 5/10, 3.5, preliminary
Protocol: as §2, §3, §4, §5, §6, §7, §8, §9, §10, §11, §12, §13, §14, §15, §16, §17

[4] = tested on: 22F5; assay: Hydrolysis of reactant ligands by receptor 22F5; format: biochemical, mouse; set-up: key to hydrolysis by 22F5, symbol: --: No hydrolysis observed; conditions: pH 8.0; for hydrolysis by 22F5: receptor/ligand uM, time h: 17 1/10, 2, 18 2/10, 24, 20 2/10, 0.33, 5 1/5, 0.33, 22 5/10, 3.5, preliminary
Protocol: as §2, §3, §4, §5, §6, §7, §8, §9, §10, §11, §12, §13, §14, §15, §16, §17

[5] = tested on: 17G8; assay: Hydrolysis of reactant ligands by receptor 17G8; format: biochemical, mouse; set-up: key to hydrolysis by 17G8, symbol: --: No hydrolysis observed; conditions: pH 8.0; for hydrolysis by 17G8: receptor/ligand uM, time h: 18 2/10, 24, 20 2/10, 0.33, 5 1/5, 0.33, 22 5/10, 3.5, preliminary
Protocol: as §2, §3, §4, §5, §6, §7, §8, §9, §10, §11, §12, §13, §14, §15, §16, §17

[6] = tested on: 13E10; assay: Hydrolysis of reactant ligands by receptor 13E10; format: biochemical, mouse; set-up: key to hydrolysis by 13E10, symbol: --: No hydrolysis observed; conditions: pH 8.0; for hydrolysis by 13E10: receptor/ligand uM, time h: 17 1/10, 2, 18 2/10, 24, 20 2/10, 0.33, 5 1/5, 0.33, 22 5/10, 3.5, preliminary
Protocol: as §2, §3, §4, §5, §6, §7, §8, §9, §10, §11, §12, §13, §14, §15, §16, §17

[7] = tested on: 21G2; assay: Hydrolysis of reactant ligands by receptor 21G2; format: biochemical, mouse; set-up: key to hydrolysis by 21G2, symbol: --: No hydrolysis observed; conditions: pH 8.0; for hydrolysis by 21G2: receptor/ligand uM, time h: 17 1/10, 2, 18 2/10, 24, 20 2/10, 0.33, 5 1/5, 0.33, 22 5/10, 3.5, preliminary
Protocol: as §2, §3, §4, §5, §6, §7, §8, §9, §10, §11, §12, §13, §14, §15, §16, §17

[8] = tested on: eight monoclonal receptors 21G2, 7E5, 37G2, 13E10, 12C9, 44A2, 17G8 and 22F5; assay: Catalyzed hydrolysis of reactant ligands by the eight QPN1 monoclonal receptors, summary; format: biochemical, mouse; conditions: pH 8.0
Protocol: Mice were hyperimmunized with the Compound 13-KLH conjugate over a three to four week time period. Sera were assayed in an ELISA using a Compound 13-BSA conjugate bound to microtiter plate wells as the solid-phase antigen. Cloned hybridomas were also screened using that ELISA assay.
Each of those catalyses could be inhibited by an appropriate analog-ligand. Thus, a relatively high percentage of induced monoclonal receptors was capable of catalyzing an esterolytic reaction. The reason for this relatively high percentage of useful receptors being induced is unknown, but could be due to the presence of phosphonamidate group nitrogen atom, as compared to a phosphonate oxygen atom, or to the quinoline nucleus of the analog-ligand. Those eight catalytic monoclonal receptors and the hybridomas that secrete them are identified by the laboratory designations "QPN1 7E5", "QPN1 12C9", "QPN1 13E10", "QPN1 17G8", "QPN1 21G2", "QPN1 22F5", "QPN1 37G2" and QPN1 44A2. The prefix "QPNI" is sometimes omitted herein when discussing these hybridomas and receptors.
Amide cleavage for Compounds 14 and 15 was assayed by analyzing for the production of free aminoquinaldine or aminonaphthalene by measuring the increase in the azo dye that results from derivatizing the free aminoquinaldine or aminonapthalene with a diazotization reagent.
Catalysis reactions were conducted by preparing a reaction admixture of 100 microliters (ul) total volume containing 5 micromolar (uM) monoclonal antibody, 50-75 uM amide reactant ligand substrate and a buffer described hereinafter. The buffer included in the above admixture varied depending upon the pH utilized as follows: pH 5, 10 […] sodium acetate, 10 mM sodium chloride; pH 7.2, 10 mM sodium phosphate, 0.15 molar (M) sodium chloride; pH 8.0; 50 mM sodium phosphate. The amide-containing substrates screened in this assay were added to the above admixture in 1 ul of a 100-fold concentrated stock solution of dimethyl formamide (DMF). Monoclonal antibody was added to the above admixture from a concentrated stock solution. The resulting admixture was placed into the well of a 96 well flat bottom microtiter plate (Costar, Cambridge, Mass.) and maintained in a moist vapor environment chamber at 23 degrees C. The production of aminoquinaldine or aminonaphthalene was then assayed as described below after 2,3,5, or 6 days.
The aminoquinaldine or aminonapthalene product produced by the catalyzed reaction was measured by first admixing 20 ul of 5M HCl, 80 ul acetone and 10 ul 0.5% (w/v) sodium nitrite to the reaction admixture to form a second admixture and maintaining that second admixture for 3 minutes at room temperature. Thereafter, 10 ul 2.5% (w/v) ammonium sulfamate was added to form a third admixture that was maintained for 2 minutes at room temperature. A still further 10 ul of 0.5% (w/v) N-(1-napthyl)ethylenediamine dihydrochloride was added to form a fourth admixture that was then maintained for 15 minutes at room temperature. Thereafter the resulting azo dye present in the fourth admixture was measured by absorbance spectroscopy at 540 nanometers (nm) for aminoquinaldine using a Model EL 309 Automated Microplate Reader (Bio-Tek Instruments, Winooski, Vt.).

[9] = tested on: 37G2; assay: Hydrolysis of reactant ligands by receptor 37G2; format: biochemical, mouse; set-up: key to hydrolysis by 37G2, symbol: --: No hydrolysis observed; conditions: pH 8.0; for hydrolysis by 37G2: receptor/ligand uM, time h: 17 1/10, 2, 18 2/10, 24, 20 2/10, 0.33, 5 1/5, 0.33, 22 5/10, 3.5, preliminary
Protocol: as §2, §3, §4, §5, §6, §7, §8, §9, §10, §11, §12, §13, §14, §15, §16, §17

[10] = Spontaneous (uncatalyzed, background) hydrolysis; format: physicochemical; set-up: key to Spon. (spontaneous hydrolysis), symbol: --: No hydrolysis observed; conditions: for Spon. (spontaneous hydrolysis): pH 8.0, 50 mM phosphate, time (h): 17 2, 18 24, 20 0.33, 5 0.33, 22 3.5
Protocol: The practical range of pH for the assay is limited by the rapid spontaneous rate of hydrolysis of an ester Compound 5 above pH 8.0. Initially, the ester was used at a concentration that was about four-fold greater than that of the protein, and the mixture was incubated at pH 7.2 for 10 minutes. Any change in fluorescence above background was noted.
The lack of spectroscopic distinction between such esters and their hydrolysis products recommended a chromatographic analysis of the process. Referring to FIG. 3, a mixture of Compound 7 (5 uM) and the monoclonal antibody from hybridoma P3 6D4 (0.1 uM) in phosphate buffer (50 mM, pH 8.0) was analyzed over time by high performance liquid chromatography (HPLC). The accelerated hydrolysis of the ester was apparent from the decrease of its peak and the concurrent increase in two new peaks that correspond with the expected products. Under these conditions, the ester is completely consumed in 60-80 minutes during which time the background rate accounts for about 12 to 16 percent hydrolysis. The chromatographic profile is the same as that produced by treatment with hog liver esterase.
^c The rate constants were determined spectrophotometrically (at 245
nm) by measuring initial rates at five concentrations of ester.
as §2, §3, §4, §5, §6, §7, §8, §9, §10, §16, §1

[11] = tested on: 7E5; assay: Hydrolysis of reactant ligands by receptor 7E5; format: biochemical, mouse; set-up: key to hydrolysis by 7E5, symbol: --: No hydrolysis observed; conditions: pH 8.0; for hydrolysis by 7E5: receptor/ligand uM, time h: 17 1/10, 2, 18 2/10, 24, 20 2/10, 0.33, 5 1/5, 0.33, 22 5/10, 3.5, preliminary
Protocol: as §2, §3, §4, §5, §6, §7, §8, §9, §10, §11, §12, §13, §14, §15, §16, §17

[12] = 19: 2/5 uM, 21: 5/10 uM receptor/ligand

| hydrolysis by 1209 [2] | hydrolysis by 44A2 [3] | hydrolysis by 22F5 [4] | hydrolysis by 17G8 [5] | hydrolysis by 13E10 [6] | hydrolysis by 21G2 [7] | receptors (of eight) that catalyzed hydrolysis of the compound [8] | hydrolysis by 37G2 [9] | Spon. (spontaneous hydrolysis) [10] | hydrolysis by 7E5 [11] | Structure (SMILES) | also measured |
| --- | --- | --- | --- | --- | --- | --- | --- | --- | --- | --- | --- |
| 16 percentage of reactant ligand | 33 percentage of reactant ligand | 48 percentage of reactant ligand | 20 percentage of reactant ligand | 16 percentage of reactant ligand | 36 percentage of reactant ligand | Only those same five receptors | 39 percentage of reactant ligand | 14 percentage of reactant ligand | 15 percentage of reactant ligand | CC(=O)Nc1ccc(CC(=O)Oc2ccc3c(C)cc(=O)oc3c2)cc1 [Compound 20] | Km ([1]; 50 mM phosphate pH 8.0, 200 nM receptor, 2% dioxane, figure = Km × 10^6): 5 µM; kcat ([1]; pH 8.0): 0.023 s⁻¹; Vmax ([1]; pH 8.0, 200 nM receptor, figure = Vmax × 10^9): 0.27 µM/min |
|  |  |  |  |  |  | failed to react |  |  |  | CC(=O)Nc1ccc(CC(=O)Oc2cccc3ccc(C)nc23)cc1 [Compound 16] | hydrolysis by 1209, symbol [2, 12]: --; hydrolysis by 44A2, symbol [3, 12]: --; hydrolysis by 22F5, symbol [4, 12]: --; hydrolysis by 17G8, symbol [5, 12]: --; hydrolysis by 13E10, symbol [6, 12]: --; hydrolysis by 21G2, symbol [7, 12]: --; hydrolysis by 37G2, symbol [9, 12]: --; Spon. (spontaneous hydrolysis), symbol ([10]; pH 8.0): --; hydrolysis by 7E5, symbol [11, 12]: -- |

| Structure (SMILES) | hydrolysis by 1209 [2] | hydrolysis by 44A2 [3] | hydrolysis by 22F5 [4] | hydrolysis by 17G8 [5] | hydrolysis by 13E10 [6] | hydrolysis by 21G2 [7] | receptors (of eight) that catalyzed hydrolysis of the compound [8] | hydrolysis by 37G2 [9] | Spon. (spontaneous hydrolysis) [10] | hydrolysis by 7E5 [11] | also measured |
| --- | --- | --- | --- | --- | --- | --- | --- | --- | --- | --- | --- |
| CC(=O)Oc1cccc2ccccc12 [Compound 18] | 56 percentage of reactant ligand | 84 percentage of reactant ligand | 100 percentage of reactant ligand | 84 percentage of reactant ligand | 69 percentage of reactant ligand | 72 percentage of reactant ligand | all of the receptors except 12C9 catalyzed the hydrolysis | 92 percentage of reactant ligand | 34 percentage of reactant ligand | 76 percentage of reactant ligand |  |

Reference: US5126258A (priority 1988, dated 1992)
